Key:
[1] = system: C[C@H](NC(=O)CCC(=O)O)C(=O)N[C@@H](C)C(=O)N1CCC[C@H]1C(=O)N[C@@H](Cc1ccccc1)C(=O)Nc1ccc([N+](=O)[O-])cc1; experiment: purified protein, by the assay type; settings: other: native CT, pH 8, 25° C.
Method: Suc-AAPF-pNA (0-125 μL of 9.60 mM in DMSO) was mixed with sodium phosphate buffer (865-950 μL of 100 mM buffer, pH 8). Native CT or conjugate solutions (10 μL, 3.9 μM of CT) was added to the substrate solution. The initial substrate hydrolysis rate was monitored by recording the increase in absorbance at 412 nm using a UV-VIS absorbance spectrometer with a temperature-controlled cell holder at 25° C. Michaelis-Menten parameters were determined by nonlinear curve fitting of initial rate versus substrate concentration plots using Enzfitter software.

[2] = molecular target: T1, Avidin from Gallus gallus egg white, Avi-pCBMA conjugate by PARIS (Gallus gallus, UniProt P02701); experiment: Binding affinity of HABA to Avi-pCBMA conjugate, PARIS; settings: 300 μM HABA
T1 construct: purchased Lee Biosolutions (Maryland Heights, Mo.); host or cells: Gallus gallus egg white
T1 sequence (P02701 25-152): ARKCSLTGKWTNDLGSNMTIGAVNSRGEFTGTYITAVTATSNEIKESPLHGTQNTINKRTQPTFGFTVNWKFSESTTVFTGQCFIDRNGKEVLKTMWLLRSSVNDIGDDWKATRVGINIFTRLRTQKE
Method: (§1) α-Chymotrypsin (CT) from bovine pancreas (type II), lysozyme from chicken egg white, acetylcholinesterase from Electrophorus electricus (electric eel, type VI-S), uricase from porcine liver (type V), and agarase from Pseudomonas atlantica were purchased from Sigma Aldrich (St Louis, Mo.). Avidin from Gallus gallus egg white was purchased from Lee Biosolutions (Maryland Heights, Mo.). Protein surface active ATRP initiator (NHS-ATRP initiator) was prepared as described elsewhere (Murata et al., supra).
(§2) Absorption at 500 nm of 300 μM HABA solution in phosphate buffered saline without calcium or magnesium (986 μL, Lonza) was measured using UV-VIS spectrometer. 16 μL, of the conjugates solution (1.25 μM of avidin in deionized water) was added to the HABA solution and incubated at room temperature for 1 minute, and then absorption at 500 nm was measured. Change in absorbance at 500 nm was used to determine bound HABA to the conjugate.

[3] = molecular target: Avidin from Gallus gallus egg white, Avi-pCBMA conjugate by solution synthesis (Gallus gallus, UniProt P02701); experiment: Binding affinity of HABA to Avi-pCBMA conjugate, solution; settings: 300 μM HABA, 1 minute, room temperature, [Avi]0 = 2 μM, ε500 = 34000 M^−1
Sequence of Avidin from Gallus gallus egg white, Avi-pCBMA conjugate by solution synthesis (P02701 25-152): as above
Method: as §1, §2

[4] = molecular target: T2, acetylcholinesterase (AChE) from Electrophorus electricus (electric eel, type VI-S), AChE-pCBMA conjugate by PARIS (Electrophorus electricus, UniProt O42275); experiment: Michaelis-Menten kinetics of AChE-catalyzed hydrolysis of acetylthiocholine iodide, PARIS conjugate; type: biochemical; settings: pH 7.4, 37° C.
T2 construct: purchased Sigma Aldrich (St Louis, Mo.); host or cells: Electrophorus electricus (electric eel)
T2 sequence (O42275 24-633): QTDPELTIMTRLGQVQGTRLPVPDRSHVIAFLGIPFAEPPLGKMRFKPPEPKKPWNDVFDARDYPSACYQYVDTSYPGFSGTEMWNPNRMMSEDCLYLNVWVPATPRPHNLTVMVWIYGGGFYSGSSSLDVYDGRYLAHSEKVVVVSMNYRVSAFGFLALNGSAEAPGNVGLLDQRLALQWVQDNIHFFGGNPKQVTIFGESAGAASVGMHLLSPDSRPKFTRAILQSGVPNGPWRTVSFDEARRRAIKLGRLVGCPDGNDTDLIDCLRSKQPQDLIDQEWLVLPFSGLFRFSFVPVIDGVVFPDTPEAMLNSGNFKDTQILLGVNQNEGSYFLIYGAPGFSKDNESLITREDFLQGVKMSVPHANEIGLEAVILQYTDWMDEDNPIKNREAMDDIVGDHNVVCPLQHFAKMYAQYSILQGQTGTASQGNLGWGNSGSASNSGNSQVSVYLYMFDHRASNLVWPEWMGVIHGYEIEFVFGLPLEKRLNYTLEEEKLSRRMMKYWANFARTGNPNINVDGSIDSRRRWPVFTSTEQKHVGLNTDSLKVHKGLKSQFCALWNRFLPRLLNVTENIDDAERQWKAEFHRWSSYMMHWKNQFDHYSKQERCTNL
Method: as §1
Acetylthiocholine iodide (0-100 μL of 10 mM in 100 mM sodium phosphate buffer (pH 7.4)) and 10 μL of DTNB solution (50 mM in DMSO) were mixed with 100 mM sodium phosphate buffer (980-880 μL, pH 7.4). Conjugate solution (10 μL, 5.5 μM of AChE) was added to the substrate solution. The initial substrate hydrolysis rate was monitored by recording the increase in absorbance at 412 nm using a UV-VIS absorbance spectrometer with a temperature-controlled cell holder at 37° C. Michaelis-Menten parameters were determined by nonlinear curve fitting of initial rate versus substrate concentration plots using Enzfitter software.

## α-Chymotrypsin (CT) from bovine pancreas (type II), native (Bos taurus)
[1]
  Km: 80.3 ± 13.1 µM
  kcat: 34.6 ± 1.4 s⁻¹
  kcat/Km: 431000 ± 72000 M⁻¹ s⁻¹

## O=C(O)c1ccccc1/N=N/c1ccc(O)cc1 [HABA, 4′-hydroxyazobenzene-2-carboxylic acid]
[2]; Avi-pCBMA, PARIS:solution
  Ratio of binding affinity of HABA (PARIS:solution): 1.01 ± 0.14
[2]; PARIS Avi-pCBMA, 1 minute, room temperature, [Avi]0 = 2 μM, ε500 = 34000 M^−1
  Bound HABA: 0.93 ± 0.13 µM
[3]
  Bound HABA: 0.92 ± 0.04 µM

## CC(=O)SCC[N+](C)(C)C.[I-] [acetylthiocholine iodide, Acetylthiocholine iodide]
[4]
  Ratio of enzymatic efficiency (PARIS:solution): 1.09 ± 0.08

From patent US20200369716A1, “SOLID-PHASE SYNTHESIS OF PROTEIN-POLYMER CONJUGATES ON IMMOBILIZATION SUPPORTS” (Carnegie Mellon University, priority 2017, published 2020)
